# Molecular target: Recombinant human KIF18A (1-467His-tagged) protein (Homo sapiens (Human), UniProt Q8NI77)
# Assay: KIF18A enzyme assay (microtubule-stimulated ATPase activity, ADP-Glo)
# Type: biochemical
# Settings: 30 nM KIF18A, ATP 75 μM, read-out: inhibitory activity against KIF18A IC50
# How it was run: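 Baculovirus-expressed human KIF18A (1-467, His-tagged; 30 nM) preincubated 15 min at room temperature with compound (22-point 2-fold series) in pH 7.5 Tris buffer containing 30 μg/mL pig microtubules and 1 μM paclitaxel.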
# Chain of Recombinant human KIF18A (1-467His-tagged) protein (Q8NI77 1-467): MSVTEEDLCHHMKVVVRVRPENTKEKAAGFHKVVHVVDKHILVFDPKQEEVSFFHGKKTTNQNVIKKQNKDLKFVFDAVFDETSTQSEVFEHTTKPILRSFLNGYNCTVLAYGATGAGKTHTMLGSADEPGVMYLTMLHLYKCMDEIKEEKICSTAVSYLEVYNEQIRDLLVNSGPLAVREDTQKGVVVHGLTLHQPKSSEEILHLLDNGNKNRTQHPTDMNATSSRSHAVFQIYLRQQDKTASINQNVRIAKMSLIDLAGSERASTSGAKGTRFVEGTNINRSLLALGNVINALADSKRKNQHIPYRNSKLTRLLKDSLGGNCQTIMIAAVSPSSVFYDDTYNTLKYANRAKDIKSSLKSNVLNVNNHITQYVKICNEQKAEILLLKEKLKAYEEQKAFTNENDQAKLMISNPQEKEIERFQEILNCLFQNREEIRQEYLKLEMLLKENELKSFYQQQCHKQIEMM
# Chain of Recombinant human KIF18A (1-467His-tagged) protein (P02550 whole entry partner): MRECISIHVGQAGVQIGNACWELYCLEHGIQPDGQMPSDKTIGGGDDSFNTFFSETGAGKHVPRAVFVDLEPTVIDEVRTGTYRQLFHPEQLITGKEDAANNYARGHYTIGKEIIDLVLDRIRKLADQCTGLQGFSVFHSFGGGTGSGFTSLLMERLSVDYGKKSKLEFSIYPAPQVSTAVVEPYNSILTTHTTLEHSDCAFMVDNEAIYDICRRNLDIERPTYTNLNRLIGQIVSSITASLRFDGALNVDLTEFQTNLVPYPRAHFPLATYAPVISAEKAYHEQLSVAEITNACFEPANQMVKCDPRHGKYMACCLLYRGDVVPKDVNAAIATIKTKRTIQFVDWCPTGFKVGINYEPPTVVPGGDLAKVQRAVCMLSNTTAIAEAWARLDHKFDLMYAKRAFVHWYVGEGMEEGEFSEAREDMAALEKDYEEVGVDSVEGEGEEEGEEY
# Chain of Recombinant human KIF18A (1-467His-tagged) protein (P02554 whole entry partner): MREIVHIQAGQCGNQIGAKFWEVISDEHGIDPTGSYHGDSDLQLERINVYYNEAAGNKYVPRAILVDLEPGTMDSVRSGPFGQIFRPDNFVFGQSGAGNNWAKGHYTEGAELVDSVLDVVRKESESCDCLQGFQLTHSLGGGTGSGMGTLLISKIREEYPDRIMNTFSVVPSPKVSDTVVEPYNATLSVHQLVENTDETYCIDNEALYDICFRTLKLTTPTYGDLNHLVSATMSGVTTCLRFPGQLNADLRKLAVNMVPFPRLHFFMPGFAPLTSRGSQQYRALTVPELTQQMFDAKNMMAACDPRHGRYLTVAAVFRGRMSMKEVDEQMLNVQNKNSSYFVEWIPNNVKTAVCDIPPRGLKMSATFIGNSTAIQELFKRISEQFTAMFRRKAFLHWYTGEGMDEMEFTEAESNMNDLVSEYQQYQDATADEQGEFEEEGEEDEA
row,IC50 [nM],SMILES
1,100 to 500,O=C(Nc1cc2c(c(N3CCC(F)(F)CC3)c1)CCCC2)c1ccc(NS(=O)(=O)CCO)cc1N1CCC2(CC1)CC2 [Compound 531]
2,≤ 100,CN1CCc2cc(NC(=O)c3ccc(S(=O)(=O)NCCO)cc3N3CCC4(CC3)CC4)cc(N3CCC(F)(F)CC3)c21 [Compound 273]
3,≤ 100,C[C@H]1CN(c2nc(C(=O)Nc3ccc(NS(=O)(=O)CCO)cc3N3CCC4(CC3)CC4)cc3c2N(C)CC3)CCO1 [Compound 355]
4,≤ 100,O=C(Nc1cc2ccoc2c(N2CCC(F)(F)CC2)n1)c1ccc(S(=O)(=O)NCCO)cc1N1CCC2(CC1)CC2 [Compound 209]
5,≤ 100,Cn1ccc2cc(NC(=O)c3ccc(S(=O)(=O)NCCO)cc3N3CCC4(CC3)CC4)nc(N3CCC4(CC4)C3)c21 [Compound 470]
6,≤ 100,C[C@H](CO)NS(=O)(=O)c1ccc(NC(=O)c2cc3ccoc3c(N3CCC(F)(F)CC3)n2)c(N2CCC3(CC2)CC3)c1 [Compound 254]
7,≤ 100,C[C@@H]1CN(c2nc(NC(=O)c3ccc(NS(=O)(=O)[C@H](C)CO)cc3N3CCC4(CC3)CC4)cc3c2N(C)CC3)CCO1 [Compound 336]
8,≤ 100,C[C@@H]1CN(c2cc(C(=O)Nc3ccc(NS(=O)(=O)[C@H](C)CO)cc3N3CCC4(CC3)CC4)cc3ccoc23)CCO1 [Compound 176]
9,≤ 100,O=C(Nc1cc(N2CCOCC2)c2occc2c1)c1ccc(NS(=O)(=O)CCO)cc1N1CCC2(CC1)CC2 [Compound 140]
10,≤ 100,C[C@H](CO)NS(=O)(=O)c1ccc(C(=O)Nc2cc3ccoc3c(N3CCC(F)(F)CC3)n2)c(N2CCC3(CC2)CC3)c1 [Compound 222]
11,≤ 100,C[C@@H](CO)NS(=O)(=O)c1ccc(NC(=O)c2cc3c(c(N4CCC(F)(F)CC4)c2)OCC3)c(N2CCC3(CC2)CC3)c1 [Compound 61]
12,≤ 100,CN1CCc2cc(C(=O)Nc3ccc(S(=O)(=O)NCCO)cc3N3CCC4(CC3)CC4)cc(N3CCC(C)(F)C3)c21 (stereo not drawn) [Compound 312]
13,≤ 100,C[C@H](CO)S(=O)(=O)Nc1ccc(C(=O)Nc2cc3ccoc3c(N3CCC(F)(F)CC3)n2)c(N2CCC3(CC2)CC3)c1 [Compound 206]
14,≤ 100,C[C@@H](CO)NS(=O)(=O)c1ccc(C(=O)Nc2cc3c(c(N4CCC(F)(F)CC4)n2)OCC3)c(N2CCC3(CC2)CC3)c1 [Compound 93]
15,≤ 100,C[C@H]1CN(c2cc(C(=O)Nc3ccc(S(=O)(=O)NCCO)cc3N3CCC4(CC3)CC4)cc3ccn(C)c23)CCO1 [Compound 435]
16,≤ 100,Cn1ccc2cc(NC(=O)c3ccc(S(=O)(=O)NCCO)cc3N3CCC4(CC3)CC4)cc(OCCC(F)(F)F)c21 [Compound 405]
17,≤ 100,C[C@H](CO)S(=O)(=O)Nc1ccc(NC(=O)c2cc(N3CCC(F)(F)CC3)c3c(ccn3C)c2)c(N2CCC3(CC2)CC3)c1 [Compound 430]
18,≤ 100,O=C(Nc1ccc(NS(=O)(=O)CCO)cc1N1CCC2(CC1)CC2)c1cc2ccoc2c(N2CCC3(CC3)C2)n1 [Compound 230]
19,≤ 100,CC1(F)CCN(c2cc(NC(=O)c3ccc(NS(=O)(=O)CCO)cc3N3CCC4(CC3)CC4)cc3ccoc23)C1 (stereo not drawn) [Compound 136]
20,≤ 100,O=C(Nc1ccc(S(=O)(=O)NCCO)cc1N1CCC2(CC1)CC2)c1cc(N2CCC(F)CC2)c2occc2c1 [Compound 185]
21,≤ 100,CN1CCc2cc(NC(=O)c3ccc(NS(=O)(=O)CCO)cc3N3CCC4(CC3)CC4)cc(N3CCC(F)(F)CC3)c21 [Compound 289]

row,IC50 [nM],SMILES
1,≤ 100,CN1CCc2cc(C(=O)Nc3ccc(S(=O)(=O)NCCO)cc3N3CCC4(CC3)CC4)cc(NC(C)(C)CO)c21 [Compound 315]
2,≤ 100,Cn1ccc2cc(C(=O)Nc3ccc(NS(=O)(=O)CCO)cc3N3CCC4(CC3)CC4)nc(N3CC(F)(F)C3)c21 [Compound 484]
3,≤ 100,O=C(Nc1cc2c(c(N3CCC(F)CC3)c1)OCC2)c1ccc(NS(=O)(=O)CCO)cc1N1CCC2(CC1)CC2 [Compound 9]
4,≤ 100,O=C(Nc1ccc(NS(=O)(=O)CCO)cc1N1CCC2(CC1)CC2)c1cc2c(c(OC3CCC3)n1)OCC2 [Compound 103]
5,≤ 100,CN1CCc2cc(NC(=O)c3ccc(NS(=O)(=O)CCO)cc3N3CCC4(CC3)CC4)nc(N3CC(F)(F)C3)c21 [Compound 324]
6,≤ 100,Cn1ccc2cc(C(=O)Nc3ccc(S(=O)(=O)NCCO)cc3N3CCC4(CC3)CC4)nc(N3CCC(F)(F)CC3)c21 [Compound 497]
7,≤ 100,Cn1ccc2cc(NC(=O)c3ccc(NS(=O)(=O)CCO)cc3N3CCC4(CC3)CC4)cc(N3CC(F)(F)C3)c21 [Compound 388]
8,≤ 100,C[C@H](CO)NS(=O)(=O)c1ccc(C(=O)Nc2cc3c(c(N4CCO[C@H](C)C4)c2)N(C)CC3)c(N2CCC3(CC2)CC3)c1 [Compound 288]
9,≤ 100,CN1CCc2cc(C(=O)Nc3ccc(S(=O)(=O)NCCO)cc3N3CCC4(CC3)CC4)nc(N3CCC(F)CC3)c21 [Compound 377]
10,≤ 100,O=C(Nc1ccc(NS(=O)(=O)CCO)cc1N1CCC2(CC1)CC2)c1cc2c(c(N3CC4CC4C3)c1)OCC2 (stereo not drawn) [Compound 42]
11,≤ 100,CC(C)(CO)Nc1cc(NC(=O)c2ccc(S(=O)(=O)NCCO)cc2N2CCC3(CC2)CC3)cc2c1OCC2 [Compound 27]
12,≤ 100,Cn1ccc2cc(NC(=O)c3ccc(S(=O)(=O)NCCO)cc3N3CCC4(CC3)CC4)nc(N3CCC(F)CC3)c21 [Compound 473]
13,≤ 100,O=C(Nc1cc2c(c(N3CC4CC4C3)n1)OCC2)c1ccc(NS(=O)(=O)CCO)cc1N1CCC2(CC1)CC2 (stereo not drawn) [Compound 74]
14,≤ 100,C[C@H]1CN(c2cc(NC(=O)c3ccc(NS(=O)(=O)CCO)cc3N3CCC4(CC3)CC4)cc3ccn(C)c23)CCO1 [Compound 387]
15,≤ 100,C[C@@H](CO)S(=O)(=O)Nc1ccc(NC(=O)c2cc3c(c(N4CCC(F)(F)CC4)c2)N(C)CC3)c(N2CCC3(CC2)CC3)c1 [Compound 301]
16,≤ 100,C[C@H]1CN(c2cc(C(=O)Nc3ccc(S(=O)(=O)NCCO)cc3N3CCC4(CC3)CC4)cc3ccoc23)CCO1 [Compound 179]
17,≤ 100,C[C@@H](CO)NS(=O)(=O)c1ccc(NC(=O)c2cc3ccn(C)c3c(N3CCC(F)(F)CC3)n2)c(N2CCC3(CC2)CC3)c1 [Compound 509]
18,≤ 100,C[C@H](CO)NS(=O)(=O)c1ccc(C(=O)Nc2cc3ccn(C)c3c(N3CCC(F)(F)CC3)n2)c(N2CCC3(CC2)CC3)c1 [Compound 478]
19,≤ 100,O=C(Nc1ccc(NS(=O)(=O)CCO)cc1N1CCC2(CC1)CC2)c1cc(OC2CCC2)c2occc2c1 [Compound 167]
20,≤ 100,Cn1ccc2cc(NC(=O)c3ccc(NS(=O)(=O)CCO)cc3N3CCC4(CC3)CC4)nc(N3CCC(F)(F)CC3)c21 [Compound 449]
21,≤ 100,CN1CCc2cc(NC(=O)c3ccc(NS(=O)(=O)CCO)cc3N3CCC4(CC3)CC4)cc(N3CCC4(CC4)C3)c21 [Compound 262]

row,IC50 [nM],SMILES
1,≤ 100,C[C@H]1CN(c2cc(NC(=O)c3ccc(S(=O)(=O)NCCO)cc3N3CCC4(CC3)CC4)cc3ccn(C)c23)CCO1 [Compound 403]
2,≤ 100,CC(C)(CO)Nc1cc(C(=O)Nc2ccc(NS(=O)(=O)CCO)cc2N2CCC3(CC2)CC3)cc2c1OCC2 [Compound 43]
3,≤ 100,Cn1ccc2cc(NC(=O)c3ccc(S(=O)(=O)NCCO)cc3N3CCC4(CC3)CC4)cc(N3CCC(C)(F)C3)c21 (stereo not drawn) [Compound 408]
4,≤ 100,C[C@@H]1CN(c2nc(C(=O)Nc3ccc(NS(=O)(=O)CCO)cc3N3CCC4(CC3)CC4)cc3c2N(C)CC3)CCO1 [Compound 354]
5,≤ 100,C[C@@H]1CN(c2nc(C(=O)Nc3ccc(S(=O)(=O)N[C@@H](C)CO)cc3N3CCC4(CC3)CC4)cc3c2OCC3)CCO1 [Compound 127]
6,≤ 100,Cn1ccc2cc(C(=O)Nc3ccc(S(=O)(=O)NCCO)cc3N3CCC4(CC3)CC4)nc(N3CCC4(CC4)C3)c21 [Compound 502]
7,≤ 100,O=C(Nc1cc(N2CC(F)(F)C2)c2occc2c1)c1ccc(NS(=O)(=O)CCO)cc1N1CCC2(CC1)CC2 [Compound 132]
8,≤ 100,Cn1ccc2cc(NC(=O)c3ccc(NS(=O)(=O)CCO)cc3N3CCC4(CC3)CC4)nc(OCCC(F)(F)F)c21 [Compound 453]
9,≤ 100,CN1CCc2cc(NC(=O)c3ccc(S(=O)(=O)NCCO)cc3N3CCC4(CC3)CC4)nc(NC(C)(C)CO)c21 [Compound 347]
10,≤ 100,C[C@H]1CN(c2cc(C(=O)Nc3ccc(S(=O)(=O)NCCO)cc3N3CCC4(CC3)CC4)cc3c2OCC3)CCO1 [Compound 51]
11,≤ 100,O=C(Nc1ccc(S(=O)(=O)NCCO)cc1N1CCC2(CC1)CC2)c1cc2ccoc2c(N2CCOCC2)n1 [Compound 252]
12,≤ 100,Cn1ccc2cc(C(=O)Nc3ccc(NS(=O)(=O)CCO)cc3N3CCC4(CC3)CC4)cc(N3CC(F)(F)C3)c21 [Compound 420]
13,≤ 100,O=C(Nc1ccc(NS(=O)(=O)CCO)cc1N1CCC2(CC1)CC2)c1cc2ccoc2c(N2CCC(F)CC2)n1 [Compound 233]
14,≤ 100,C[C@H](CO)NS(=O)(=O)c1ccc(NC(=O)c2cc(N3CCO[C@H](C)C3)c3occc3c2)c(N2CCC3(CC2)CC3)c1 [Compound 192]
15,≤ 100,O=C(Nc1cc2ncsc2c(N2CCC(F)(F)CC2)n1)c1ccc(NS(=O)(=O)CCO)cc1N1CCC2(CC1)CC2 [Compound 516]
16,≤ 100,C[C@@H]1CN(c2nc(C(=O)Nc3ccc(S(=O)(=O)N[C@@H](C)CO)cc3N3CCC4(CC3)CC4)cc3ccn(C)c23)CCO1 [Compound 511]
17,≤ 100,C[C@@H]1CN(c2cc(C(=O)Nc3ccc(NS(=O)(=O)CCO)cc3N3CCC4(CC3)CC4)cc3ccoc23)CCO1 [Compound 162]
18,≤ 100,Cn1ccc2cc(NC(=O)c3ccc(NS(=O)(=O)CCO)cc3N3CCC4(CC3)CC4)nc(N3CC4CC4C3)c21 (stereo not drawn) [Compound 458]
19,≤ 100,C[C@@H]1CN(c2nc(NC(=O)c3ccc(S(=O)(=O)NCCO)cc3N3CCC4(CC3)CC4)cc3ccn(C)c23)CCO1 [Compound 466]
20,≤ 100,CN1CCc2cc(NC(=O)c3ccc(NS(=O)(=O)CCO)cc3N3CCC4(CC3)CC4)cc(OC3CCC3)c21 [Compound 263]
21,≤ 100,O=C(Nc1cc2c(c(N3CCC4(CC4)C3)c1)OCC2)c1ccc(S(=O)(=O)NCCO)cc1N1CCC2(CC1)CC2 [Compound 22]
